Four molecules from patent US9206412B2, “Thioxothiazolidine inhibitors” (Colorado State University Research Foundation, priority 2012, dated 2015) can be followed below.

The structures appear in SMILES notation. “And” between values parts separate entries of the source, which are not always exact repeats. Equal entries are not always repeated. “Also recorded” adds a separate entry of the source. Where two headings read alike, the source gives them in different places.

One data set has as its system BHK-pD2hRucPac cells. Briefly: Cell viability (CellTiter-Glo) in replicon assay. As to conditions: read-out: Replicon Assay_CC50_M; Table 2-1. For orientation: Cellular ATP, detected with luciferase, serves as a proxy for viable cell number.
Data set [1] deals with dengue type 2 virus subgenomic replicon (BHK-pD2hRucPac). Briefly: Antiviral (replicon) assay, Renilla luciferase. It is filed as cell-based. (In general: A replicon is a self-replicating genome or part of one, used to study replication in cells.)
The target of data set [2] is yellow fever virus capping enzyme (Yellow fever virus, UniProt P03314). Briefly: biochemical. The data set is classed as binding, yellow fever virus (strain 17D).
Sequence of yellow fever virus capping enzyme (P03314 2507-2774 limits assumed): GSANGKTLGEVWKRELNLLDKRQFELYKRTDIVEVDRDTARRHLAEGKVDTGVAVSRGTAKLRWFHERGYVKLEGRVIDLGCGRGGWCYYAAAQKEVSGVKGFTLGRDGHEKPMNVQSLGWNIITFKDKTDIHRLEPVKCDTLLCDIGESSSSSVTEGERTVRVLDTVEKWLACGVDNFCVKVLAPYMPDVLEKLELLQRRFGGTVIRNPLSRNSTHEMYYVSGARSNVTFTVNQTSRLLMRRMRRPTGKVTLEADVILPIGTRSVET
A further data set addresses WNV. Briefly: Ki determination, fluorescence polarization (FP_WNV_KI). As to conditions: read-out: FP_WNV_KI_AVG_WNV_M; Table 2-1. (Fluorescence polarisation rises when a labelled molecule tumbles more slowly, as on binding a larger partner.)
Data set [3] addresses T1, dengue virus capping enzyme (Dengue virus type 2, UniProt P29990).
T1 sequence (P29990 2492-2758): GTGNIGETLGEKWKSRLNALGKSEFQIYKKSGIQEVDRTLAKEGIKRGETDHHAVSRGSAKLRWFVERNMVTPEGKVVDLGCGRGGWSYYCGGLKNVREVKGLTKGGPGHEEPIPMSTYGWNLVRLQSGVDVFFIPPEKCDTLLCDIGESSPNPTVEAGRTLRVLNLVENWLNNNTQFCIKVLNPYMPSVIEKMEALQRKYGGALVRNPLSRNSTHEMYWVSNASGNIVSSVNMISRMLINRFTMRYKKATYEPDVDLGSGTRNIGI
Briefly: biochemical. It is filed as binding, dengue virus type 2 (strain 16681).

The nature of data set [4]: Cell viability (CellTiter-Glo) in replicon assay. As to conditions: hamster, BHK-pD2hRucPac cells (dengue replicon cells).
The target in a further data set is dengue capping enzyme (Dengue virus type 2, UniProt P29990). Put plainly: Guanylation inhibition assay.
Data set [5] deals with West Nile virus (Kunjin subtype). The data set is classed as cell-based.
Data set [6] deals with West Nile virus (Kunjin) RNA. Put plainly: qRT-PCR of Kunjin viral RNA in culture media. The data set is classed as cell-based. On the procedure: Quantitative Reverse Transcriptase Real-Time PCR Analysis. West Nile virus (Kunjin) RNA was extracted from cell culture media with Trizol LS (Invitrogen, La Jolla, Calif.) following the manufacturer's protocol. Quantitative reverse transcriptase real-time PCR reactions for Kunjin genomic RNA were performed using the Brilliant III Ultra-Fast SYBR QRT-PCR Master Mix (Catalog # 600886, Agilent, Santa Clara, Calif.) with primers Fwd 6170 (5′-[…] (SEQ ID NO: 1)) and Rev 6278 (5′-[…] (SEQ ID NO: 2)). To set up qRT-PCR reactions, 2 μL of extracted RNA was added to 5 μL of 2× master mix, 1 μL of 5 μM Fwd 6170 primer, 1 μL of 5 μM Rev 6278 primer, and 1 μL of 100 mM DTT in 96-well PCR plates with optically clear sealing films. No RNA and no primer controls were included in each experiment. qRT-PCR reactions were performed on a BioRad CFX384 real-time PCR thermal cycler using the following cycling conditions: Reverse transcriptase step=50° C., 10 minutes; denature step=95° C., 3 minutes; PCR (40 cycles)=95° C., 5 seconds/60° C., 10 seconds. Melt curves were performed at the end of each run, to verify the specificity of the detected SYBR signal. Cq values were determined by setting the threshold to 40 for all experiments. Standard curves were generated from diluted media containing Kunjin virus of known titer (PFU/mL), and the Cq values from experimental samples were compared to the standard curve to establish PFU equivalent/mL values for each sample (y=−3.475x+27.577, y=Cq , X=Log10(PFU)). The limit of detection in these experiments was determined to be 10 PFU equivalents/mL. All experiments were performed three times, and the average and standard error of the mean reported.

Another data set relates to yellow fever (17D) virus. It is filed as cell-based.
A further data set concerns Kunjin virus NS5 protein. Put plainly: Western blot analysis of NS5 in Kunjin infected BHK cells. As to conditions: MOI=0.01, 48 hours post-infection, increasing concentrations.
The subject of a further data set is Sindbis virus pBG451. It is filed as cell-based.
Setting [7] is: Replicon Assay_CC50_M, Table 2-1.
The mark [8] stands for this setting: Replicon CC50, Table 3, 72 hours.
[9] abbreviates: Dengue virus, 72 h, read-out: Replicon EC50, Table 3, 72 hours.
[10] abbreviates: Dengue virus, read-out: Replicon Assay_EC50_M, Table 2-1.

`CC(C)(C)c1ccc(/C=C2\SC(=S)N(CCC(=O)O)C2=O)cc1` [BG295]: the CC50 in the data set with BHK-pD2hRucPac cells worked out at 114 µM. The EC50 in [1] (Table 2-1, read-out: Replicon Assay_EC50_M) is 30 µM. Further, the Ki is 2 µM in [2] (read-out: FP_YF_KI_AVG_YF_M), 8 µM at WNV and 2 µM in data set [3] (read-out: FP_DEN_Ki_AVG_DEN_M).
A word on the IC50: it is the concentration at which inhibition is half-maximal. Read a high IC50 as a need for much substance. Consider `O=C(O)CCN1C(=O)/C(=C/c2ccc(Cl)cc2Cl)SC1=S` [BG-330], for which the values for the CC50 at 72 h in data set [4] (setting [7]) and in [4] (setting [8]) were 11 µM and 12 µM, respectively. Further, the EC50 is 8.7 µM in data set [1] (setting [9]) and 9 µM in data set [1] (setting [10]). In addition, the values for the Ki in data set [2] (FP_YF_KI_AVG_YF_M), in data set [3] (FP_DEN_Ki_AVG_DEN_M) and in data set [3] (Ki (GTP displacement)) were 9 µM, 10 µM and 9.8 µM, respectively. On dengue capping enzyme, this molecule came in with an IC50 of 2.6 µM.
For `O=C(O)CCN1C(=O)/C(=C/c2cccc(Cl)c2Cl)SC1=S` [BG-324], the CC50 at 72 h in data set [4] (setting [7]) and in data set [4] (setting [8]) was 12 µM in each case. Further, the EC50 in data set [1] (setting [9]) came to 8.5 µM; in data set [1] (setting [10]), 9 µM. Besides, the Ki in [2] (FP_YF_KI_AVG_YF_M) turned out to be 16 µM; in data set [3] (FP_DEN_Ki_AVG_DEN_M) it was 10 µM; in [3] (Ki (GTP displacement)) it was 9.9 µM. The same molecule gave an IC50 against dengue capping enzyme of 155 µM.
As to `CC(C)(C)c1ccc(/C=C2/SC(=S)N(CCC(=O)O)C2=O)cc1` [BG-323, (E)-3-(5-(4-tert-butylbenzylidene)-4-oxo-2-thioxo-1,3-thiazolidin-3-yl)propanoic acid], the entries for the “reduction of virus titers” value (in data set [5]; with yellow fever (17D) virus) were approximately 3 logs and “slightly less robust effect”, respectively. Further, the CC50 at 72 h is 184 µM in data set [4] (setting [7]); 184 µM in data set [4] (setting [8]); 184 µM in [4] (Replicon CC50, text). The EC50 in data set [1] (setting [9]) was 30.8 µM; in [1] (Dengue virus, 72 h, read-out: Replicon EC50, 72 hours), 30.8 µM; in data set [1] (setting [10]), 30.8 µM; in data set [1] (read-out: Replicon EC50, 72 hours) it was approximately 30 µM. Moreover, the Ki in data set [2] (FP_YF_KI_AVG_YF_M) was 9.5 µM; in data set [2] (Ki (GTP binding)) it was approximately 7 µM; in [3] (FP_DEN_Ki_AVG_DEN_M) it was 7.5 µM; in data set [3] (Ki (GTP displacement)) it was ~7 µM and 7.5 µM and ~10 µM. The “viral RNA in media with replacement of compound every 24 hours” value in data set [6] (100 μM, fresh media every 24 hours for 72 hours) was “significantly reduced viral RNA in media over time”. Moreover, in data set [6] (BHK, Kunjin MOI=0.01, 50 μM or 100 μM, 72 hours post-infection), the “viral RNA detectable in the media” value is recorded as “significantly reduced”. The “activity after pre-incubation in media at 37° C.” value in data set [6] (pre-incubated 3, 2, 1, or 0 days, 50 μM, Kunjin RNA at 72 hours) is “becomes less active over longer incubation periods”. The cell viability result with BHK cells was “minor reduction in cell viability”. In addition, the “viral NS5 protein level” value with Kunjin virus NS5 protein is reported as “significant decrease in NS5”. In the data set on Sindbis virus pBG451, the “Renilla signal of Sindbis virus” value is listed as “Only a very minor reduction in Renilla signal; also recorded: insensitive”.
